The values that follow come from US9642835B2, “Modulators of GTPase and use in relevant treatment” (STC.UNM, priority 2010, dated 2017).

SMILES strings stand for the structures.

For the test, the target named is His-Cdc42 binding to GST-PAK-PBD (Homo sapiens, UniProt P60953). The experiment in a line: In vitro Cdc42-GTPγS formation PAK-PBD pull-down. The note with it: 10 μM inhibitor. The test is classed as biochemical. How it is done:
For analysis of the effect of MLS000693334 on the formation of the GTP-bound form of Cdc42 in vitro, 40 nM His-Cdc42 wt incubated (20 min at 30 C) with various concentration of GTPγS in the presence of 1 mM EDTA containing NP-HPS buffer. Reaction stopped by adding of excess amount of MgCl2. Mixture incubated with 15 μl PAK-PBD/beads (Cytoskeleton Inc., Denver, Colo.) for 1 h. Washed 2× and active Cdc42 analyzed by Western blot using mAb for Cdc42 (Cytoskeleton Inc., Denver, Colo.) and Mouse TrueBlot Ultra: Horseradish Peroxidase anti-mouse IgG (eBioscience. San Diego, Calif.) followed by ECL (Thermo Scientific, Rockford, Ill.).
For in vitro Cdc42 activation measurements, DMSO or an equal volume of SID57578341 in DMSO were incubated for 20 min at 30° C. with 40 nM His-Cdc42 protein and varying concentrations of GTPγS in 1 mM EDTA-containing buffer (NP-HPS). Further nucleotide exchange was inhibited with the addition of excess MgCl2 (60 mM final) and transfer to ice. Activated Cdc42 protein was isolated from solution by adding 15 μl GST-PAK-PBD bound glutathione beads and rotation at 4° C. for 1 h. Activated Cdc42 bound to GST-PAK-PDB was resolved by SDS-PAGE (12% gels) and analyzed by immunoblot using mAb directed against Cdc42 (Cytoskeleton, Inc.) and ECL (Thermo Scientific, Rockford, Ill.). Quantification was by densitometry.

His-Cdc42 binding to GST-PAK-PBD, sequence (P60953 whole entry): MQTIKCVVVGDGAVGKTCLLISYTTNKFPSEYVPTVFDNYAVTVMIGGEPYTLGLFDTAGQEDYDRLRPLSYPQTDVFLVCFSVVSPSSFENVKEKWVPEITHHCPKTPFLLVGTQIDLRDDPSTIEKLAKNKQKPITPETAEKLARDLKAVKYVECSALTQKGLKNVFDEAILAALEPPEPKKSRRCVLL

Turning to `COc1ccc(C2CC(c3ccccc3)=NN2c2ccc(S(N)(=O)=O)cc2)cc1` (stereo not shown) [MLS000693334, 4-[3-(4-methoxyphenyl)-5-phenyl-3,4-dihydropyrazol-2-yl]benzenesulfonamide], the “Complex formation of active Cdc42(GTPγS) with PAK-PBD” value was “dramatically reduced”.
